Three compounds from patent US20250152719A1, “FUSED IMIDE DERIVATIVE” (Chia Tai Tianqing Pharmaceutical Group Co., Ltd., priority 2021, published 2025) can be followed below.

A short description of one series: Mouse pharmacokinetics. It counts as in vivo, ICR mice. An outline of the steps:
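ICR mice (18–22 g, n=9 per group) dosed intragastrically at 10 mg/kg. Orbital blood sampled from 15 min to 24 h; plasma was precipitated with acetonitrile containing internal standard and quantified against a standard curve. Parameters derived by non-compartmental analysis.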

For a further series, the target named is BTK (Homo sapiens (Human), UniProt Q06187). As to the kind of experiment: BTK degradation in OCI-LY10 cells (Total-BTK HTRF kit). To be noted: 24 (or 6) h incubation; for DC50: DC50 = concentration when degradation rate reaches 50%, read-out: OCI-LY10 cell BTK degradation DC50; for Dmax: OCI-Ly10, OCI-LY10 cells. It counts as cell-based. An outline of the steps:
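OCI-LY10 cells seeded overnight, then treated with compound at 100 nM-0.098 nM in duplicate for 24 (or 6) h. Lysates probed by Total-BTK HTRF (d2/Eu cryptate antibodies, overnight, room temperature), read at 665/620 nm; DC50 and Dmax from four-parameter dose-response fits.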

In the next series the target is BTK(WT) kinase (Homo sapiens (Human), UniProt Q06187). Put plainly: Inhibitory activity on BTK(WT) kinase. It counts as biochemical. As to conditions: ATP 10 μM. The procedure:
The Assay Buffer was prepared, and the composition of the Assay Buffer was 50 mM Hepes (Gibco, 15630), 10 mM MgCl2, 2 mM DTT, 1 mM EGTA, and 0.010% Tween 20. BTK(WT) kinase (Life, PR5442A), ATP (Sigma, A7699), and ULight-poly GT (PE, TRF0100-M) working solutions were prepared using the Assay Buffer. EDTA and Eu-labeled anti-phosphotyrosine (PT66) antibody (PE, AD0069) working solutions were prepared using the Detection Buffer (PE, CR97-100). 6 μL of BTK(WT) kinase at the corresponding concentration (final concentration: 0.003 ng/L) was added to the compound groups and the control group, while 6 μL of the Assay Buffer was added to the blank group, and then the compounds (with the concentration set to 1000 nM at the maximum, 4-fold dilution, 7 concentration gradients) were each added using a nanoliter pipettor. The mixture was incubated at room temperature for 30 min, and then 4 μL of the mixture of ATP (final concentration: 10 μM) and ULight-poly GT (final concentration: 100 nM) was added. After incubation at room temperature for 2 h, 5 μL of EDTA (final concentration: 10 mM) was added to stop the reaction, and finally 5 μL of antibody (final concentration: 2 nM) was added. After incubation at room temperature for 1 h, signal values were detected at 665/615 nM, the four-parameter analysis was performed, the dose-response curves were fit, and IC50 was calculated.

A further series deals with EGFR kinase (Homo sapiens (Human), UniProt P00533). Put plainly: Inhibitory activity on EGFR kinase. It counts as biochemical. To be noted: ATP 5 μM. The procedure:
The Assay Buffer was prepared, and the composition of the Assay Buffer was 50 mM Hepes (Gibco, 15630), 10 mM MgCl2, 2 mM DTT, 1 mM EGTA, and 0.010% Tween 20. EGFR kinase (Carna, 08-115), ATP (Sigma, A7699), and ULight-poly GT (PE, TRF0100-M) working solutions were prepared using the Assay Buffer. EDTA and Eu-labeled anti-phosphotyrosine (PT66) antibody (PE, AD0069) working solutions were prepared using the Detection Buffer. 6 μL of EGFR kinase at the corresponding concentration (final concentration: 0.006 ng/μL) was added to the compound groups and the control group, while 6 μL of the Assay Buffer was added to the blank group, and then the compounds (with the concentration set to 1000 nM at the maximum, 4-fold dilution, 7 concentration gradients) were added using a nanoliter pipettor. The mixture was incubated at room temperature for 30 min, and then 4 μL of the mixture of ATP (final concentration: 5 μM) and ULight-poly GT (final concentration: 100 nM) was added. After incubation at room temperature for 2 h, 5 μL of EDTA (final concentration: 10 mM) was added to stop the reaction, and finally 5 μL of antibody (final concentration: 2 nM) was added. After incubation at room temperature for 1 h, signal values were detected at 665/615 nM, the four-parameter analysis was performed, the dose-response curves were fit, and IC50 was calculated.

Setting [1] is: ICR, mouse, plasma, iv, 1 mg/kg, Mouse i.v. 1 mpk.
[2] abbreviates: ICR, mouse, plasma, iv, 1 mg/kg, Mouse i.v. 1 mpk, read-out: AUC.
Where [3] appears, read: ICR, mouse, plasma, po, 10 mg/kg, Mouse i.g. 10 mpk.
The mark [4] stands for this setting: ICR, mouse, plasma, po, 10 mg/kg, Mouse i.g. 10 mpk, read-out: AUC.
Where [5] appears, read: ICR, mouse, plasma, po, 10 mg/kg, Mouse i.g. 10 mpk, read-out: Cmax.

Like-named read-outs stand apart in the source and are kept apart here. Where only a bound is given, the exact number is not on record here.

Chain of EGFR kinase (P00533 669-1210): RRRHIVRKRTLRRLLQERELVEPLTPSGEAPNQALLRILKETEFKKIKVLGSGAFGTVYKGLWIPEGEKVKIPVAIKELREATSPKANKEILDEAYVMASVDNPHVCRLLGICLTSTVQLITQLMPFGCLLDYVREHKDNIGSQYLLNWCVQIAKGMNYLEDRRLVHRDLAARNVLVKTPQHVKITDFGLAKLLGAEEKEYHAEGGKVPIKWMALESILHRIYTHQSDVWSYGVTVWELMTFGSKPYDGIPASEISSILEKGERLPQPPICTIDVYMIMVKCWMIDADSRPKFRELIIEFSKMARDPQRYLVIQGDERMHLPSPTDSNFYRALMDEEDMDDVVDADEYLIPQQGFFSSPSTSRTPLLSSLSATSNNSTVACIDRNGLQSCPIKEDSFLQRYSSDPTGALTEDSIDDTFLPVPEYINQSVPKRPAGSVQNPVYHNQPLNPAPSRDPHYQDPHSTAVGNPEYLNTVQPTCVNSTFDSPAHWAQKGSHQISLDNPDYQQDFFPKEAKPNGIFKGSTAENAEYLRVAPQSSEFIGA
Chain of BTK(WT) kinase (Q06187 whole entry): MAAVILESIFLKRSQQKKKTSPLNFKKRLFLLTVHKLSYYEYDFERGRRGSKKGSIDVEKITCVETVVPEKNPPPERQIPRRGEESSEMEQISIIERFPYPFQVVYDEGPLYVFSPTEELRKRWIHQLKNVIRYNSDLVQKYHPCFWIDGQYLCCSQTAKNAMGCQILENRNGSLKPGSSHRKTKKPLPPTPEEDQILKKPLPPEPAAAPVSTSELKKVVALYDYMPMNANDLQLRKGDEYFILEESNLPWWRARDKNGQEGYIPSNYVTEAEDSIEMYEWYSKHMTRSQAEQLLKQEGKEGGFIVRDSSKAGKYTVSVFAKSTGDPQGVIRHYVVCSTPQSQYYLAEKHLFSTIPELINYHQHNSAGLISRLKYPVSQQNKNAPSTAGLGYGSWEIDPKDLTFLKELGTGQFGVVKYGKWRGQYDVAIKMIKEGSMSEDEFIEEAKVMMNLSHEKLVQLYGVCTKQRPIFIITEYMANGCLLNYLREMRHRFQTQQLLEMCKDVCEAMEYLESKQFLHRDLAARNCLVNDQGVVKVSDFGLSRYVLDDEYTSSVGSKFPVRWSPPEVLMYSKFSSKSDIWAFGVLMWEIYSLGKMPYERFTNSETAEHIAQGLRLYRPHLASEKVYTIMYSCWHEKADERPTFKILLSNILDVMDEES
Chain of BTK (Q06187 whole entry): as above

Compound `CN1CCN([C@@H]2CCCN(c3cnc(C(N)=O)c(Nc4ccc(C5CCN(C6CN(c7ccc8c(C9CCC(=O)NC9=O)noc8c7)C6)CC5)cc4)n3)C2)C1=O` (some centres unmarked) [Compound 10] showed a clearance in “Mouse pharmacokinetics” (setting [1]) of 2.65 mL/min/kg. Moreover, the half-life in “Mouse pharmacokinetics” (setting [1]) is 1.6 h; in “Mouse pharmacokinetics” (setting [3]), 2.9 h. For the same compound, the area under the curve (AUC) was 6140 ng·h/mL in the series “Mouse pharmacokinetics” (setting [2]) and 35600 ng·h/mL in “Mouse pharmacokinetics” (setting [4]). In “Mouse pharmacokinetics” (setting [5]), the highest concentration (Cmax) is 3850 ng/mL. In the series “Mouse pharmacokinetics” (Mouse i.g. 10 mpk), this compound yielded an F of 57.98%. Further, the DC50 at BTK (OCI-LY10 cells) is below 0.098 nM. The compound also gave a maximal degradation (Dmax) at BTK (maximum degradation rate) of 99%. For the same compound, the 50% inhibitory concentration (IC50) at BTK(WT) kinase amounted to 7.1 nM; against EGFR kinase it was 3320 nM.

Consider `CN1CCN([C@@H]2CCCN(c3cnc(C(N)=O)c(Nc4ccc(N5CCC(CN6CCc7ccc8c(C9CCC(=O)NC9=O)noc8c7CC6)CC5)cc4)n3)C2)C1=O` (some centres unmarked) [Compound 27], for which, in the series “Mouse pharmacokinetics” (setting [1]), the clearance was 9.33 mL/min/kg. The results for the half-life in the series “Mouse pharmacokinetics” (setting [1]) and in the series “Mouse pharmacokinetics” (setting [3]) were 1.4 h and 2.4 h, respectively. For the same compound, the exposure (AUC) was 1760 ng·h/mL in the series “Mouse pharmacokinetics” (setting [2]) and 7690 ng·h/mL in “Mouse pharmacokinetics” (setting [4]). For the same compound, the maximum concentration (Cmax) in the series “Mouse pharmacokinetics” (setting [5]) was 766 ng/mL. Also, the F in the series “Mouse pharmacokinetics” (Mouse i.g. 10 mpk) is 44.0%. Moreover, on BTK (OCI-LY10 cells), the DC50 is below 0.098 nM. At BTK (maximum degradation rate), the Dmax was found to be 97%. The IC50 on BTK(WT) kinase turned out to be 0.96 nM; at EGFR kinase, 109 nM.

In “Mouse pharmacokinetics” (Mouse i.g. 10 mpk), `CN1CCN([C@@H]2CCCN(c3cnc(C(N)=O)c(Nc4ccc(C5CCC(N6Cc7ccc8c(C9CCC(=O)NC9=O)noc8c7C6)CC5)cc4)n3)C2)C1=O` (some centres unmarked) [Compound 33] displayed an AUC of 20971 ng·h/mL, a maximum concentration (Cmax) of 1555 ng/mL, an F of 26.0% and a t1/2 of 3.2 h. For the same compound, in “Mouse pharmacokinetics” (Mouse i.v. 1 mpk), the AUC came to 7987 ng·h/mL, the Cl turned out to be 2.17 mL/min/kg and the t1/2 came to 2.6 h. Besides, the “BTK degradation in OCI-LY10 cells Dmax” value at BTK (OCI-LY10 cells, maximum degradation rate) is recorded as above 90%. For the same compound, on BTK(WT) kinase, the IC50 is 11 nM. The compound further gave an IC50 on EGFR kinase of 785 nM.
